Test results reported in US9708357B2, “4′-azido, 3′-fluoro substituted nucleoside derivatives as inhibitors of HCV RNA replication” (Riboscience LLC, priority 2011, dated 2017).

What was measured:
[1] = test system: HCV genotype 1b subgenomic replicon (2209-23 cells); assay: HCV Replicon assay (Renilla luciferase reporter); format: cell-based; conditions: Hepatitis C virus, Huh-7, 72 h; genotype 1b replicon, 2209-23 Huh7 cells, three days incubation, Renilla luciferase readout
in vitro = conditions: human

In the case of `CC(C)OC(=O)[C@H](C)NP(=O)(OC[C@@]1(N=[N+]=[N-])O[C@@H](n2ccc(N)nc2=O)[C@H](O)[C@@H]1F)Oc1cccc2ccccc12` (stereo partly drawn) [Compound I-4, (S)-2-[[(2R,3S,4S,5R)-5-(4-Amino-2-oxo-2H-pyrimidin-1-yl)-2-azido-3-fluoro-4-hydroxy-tetrahydro-furan-2-ylmethoxy]-(naphthalen-1-yloxy)-phosphorylamino]-propionic acid isopropyl ester], the IC50 [1] is reported as greater than 100 µM and the CC50 (in vitro) is reported as greater than 100 µM.

Work on `C[C@H](NP(=O)(OC[C@@]1(N=[N+]=[N-])O[C@@H](n2ccc(N)nc2=O)[C@H](O)[C@@H]1F)Oc1cccc2ccccc12)C(=O)OCc1ccccc1` (stereo partly drawn) [Compound I-5, (S)-2-[[(2R,3S,4S,5R)-5-(4-Amino-2-oxo-2H-pyrimidin-1-yl)-2-azido-3-fluoro-4-hydroxy-tetrahydro-furan-2-ylmethoxy]-(naphthalen-1-yloxy)-phosphorylamino]-propionic acid benzyl ester] yielded an IC50 [1] of 1.54 µM and a CC50 (in vitro) of 91.2 µM.

In the case of `CC(C)OC(=O)[C@H](C)NP(=O)(OC[C@@]1(N=[N+]=[N-])O[C@@H](n2ccc(=O)[nH]c2=O)[C@H](O)[C@@H]1F)Oc1ccccc1` (stereo partly drawn) [Compound I-1, (S)-2-{[(2R,3S,4S,5R)-2-Azido-5-(2,4-dioxo-3,4-dihydro-2H-pyrimidin-1-yl)-3-fluoro-4-hydroxy-tetrahydro-furan-2-ylmethoxy]-phenoxy-phosphorylamino}-propionic acid isopropyl ester], the IC50 [1] is reported as greater than 100 µM and the CC50 (in vitro) is reported as greater than 100 µM.

Compound `CCOC(=O)[C@H](C)NP(=O)(OC[C@@]1(N=[N+]=[N-])O[C@@H](n2ccc(=O)[nH]c2=O)[C@H](O)[C@@H]1F)Oc1cccc2ccccc12` (stereo partly drawn) [Compound I-3, (S)-2-[[(2R,3S,4S,5R)-2-Azido-5-(2,4-dioxo-3,4-dihydro-2H-pyrimidin-1-yl)-3-fluoro-4-hydroxy-tetrahydro-furan-2-ylmethoxy]-(naphthalen-1-yloxy)-phosphorylamino]-propionic acid ethyl ester] has an IC50 [1] of 79.1 µM and a CC50 (in vitro) greater than 100 µM.

Compound `CC(C)OC(=O)[C@H](C)NP(=O)(OC[C@@]1(N=[N+]=[N-])O[C@@H](n2ccc(N)nc2=O)[C@H](O)[C@@H]1F)Oc1ccccc1` (stereo partly drawn) [Compound I-7, (S)-2-{[(2R,3S,4S,5R)-5-(4-Amino-2-oxo-2H-pyrimidin-1-yl)-2-azido-3-fluoro-4-hydroxy-tetrahydro-furan-2-ylmethoxy]-phenoxy-phosphorylamino}-propionic acid isopropyl ester] has an IC50 [1] of 56 µM and a CC50 (in vitro) greater than 100 µM.

Compound `CCOC(=O)[C@H](C)NP(=O)(OC[C@@]1(N=[N+]=[N-])O[C@@H](n2ccc(=O)[nH]c2=O)[C@H](O)[C@@H]1F)Oc1ccccc1` (stereo partly drawn) [Compound I-2, (S)-2-{[(2R,3S,4S,5R)-2-Azido-5-(2,4-dioxo-3,4-dihydro-2H-pyrimidin-1-yl)-3-fluoro-4-hydroxy-tetrahydro-furan-2-ylmethoxy]-phenoxy-phosphorylamino}-propionic acid ethyl ester] has an IC50 [1] of 39.8 µM and a CC50 (in vitro) greater than 100 µM.

Work on `CCC(=O)O[C@H]1[C@H](n2ccc(N)nc2=O)O[C@@](COP(=O)(N[C@@H](C)C(=O)OC(C)C)Oc2cccc3ccccc23)(N=[N+]=[N-])[C@H]1F` (stereo partly drawn) [Compound I-9, (S)-2-[[(2R,3S,4S,5R)-5-(4-Amino-2-oxo-2H-pyrimidin-1-yl)-2-azido-3-fluoro-4-propionyloxy-tetrahydro-furan-2-ylmethoxy]-(naphthalen-1-yloxy)-phosphorylamino]-propionic acid isopropyl ester] yielded an IC50 [1] of 27 µM and a CC50 (in vitro) of 58 µM.

With `CC(C)OC(=O)[C@H](C)NP(=O)(O)OC[C@@]1(N=[N+]=[N-])O[C@@H](n2ccc(N)nc2=O)[C@H](O)[C@@H]1F` [Compound I-8, (S)-2-{[(2R,3S,4S,5R)-5-(4-Amino-2-oxo-2H-pyrimidin-1-yl)-2-azido-3-fluoro-4-hydroxy-tetrahydro-furan-2-ylmethoxy]-hydroxy-phosphorylamino}-propionic acid isopropyl ester] the IC50 [1] was greater than 100 µM and the CC50 (in vitro) was greater than 100 µM.

Compound `CCOC(=O)[C@H](C)NP(=O)(OC[C@@]1(N=[N+]=[N-])O[C@@H](n2ccc(N)nc2=O)[C@H](O)[C@@H]1F)Oc1cccc2ccccc12` (stereo partly drawn) [Compound I-6, (S)-2-[[(2R,3S,4S,5R)-5-(4-Amino-2-oxo-2H-pyrimidin-1-yl)-2-azido-3-fluoro-4-hydroxy-tetrahydro-furan-2-ylmethoxy]-(naphthalen-1-yloxy)-phosphorylamino]-propionic acid ethyl ester] has an IC50 [1] of 32 µM and a CC50 (in vitro) greater than 100 µM.
